Measurements: patent US6436890B1, “Antimicrobial detergent composition” (Inui Corporation, priority 1999, dated 2002)
Where two headings read alike, the source gives them in different places.

What was measured:
Type in all cases: cell-based
[1] = test system: Staphylococcus aureus JCI (MRSA); assay: Antimicrobial power against MRSA, MIC by Nutrient Broth liquid medium dilution method; settings: for MIC: Staphylococcus aureus JCI (MRSA); for Antimicrobial activity against MRSA (in words): at a low concentration
Procedure: Antimicrobial power against MRSA (Methicillin-resistant Staphylococcus aureus) of N,N′-hexamethylenebis (4-carbamoyl-1-decylpyridinium bromide) (“Dimer 38” manufactured by INUI CORPORATION) and 4,4′-(tetramethylenecarbonyldiamino)bis(1-decyl-pyridinium bromide) (“Dimer 136” manufactured by INUI CORPORATION). L-broth (5 ml) was inoculated with Staphylococcus aureus JC1 and, after incubation at 37° C. for 18 hours, the MIC (minimum inhibitory concentration) of Dimer 38 and Dimer 136 was measured according to the Nutrient Broth liquid medium dilution method.

[2] = test system: Bacillus subtilis ATCC 6633
Procedure: (§1) L-broth (5 ml) was inoculated with each bacteria and, after incubation at 37° C. for 18 hours, the MIC (minimum inhibitory concentration) was measured according to the Nutrient Broth liquid medium dilution method.

[3] = test system: Pseudomonas aeruginosa ATCC 10145
Procedure: as §1

[4] = test system: Escherichia coli K12W3110
Procedure: as §1

[5] = test system: Staphylococcus aureus IFO 12732
Procedure: as §1

With “4,4′-(tetramethylenedicarbonyldiamino)bis(1-decylpyridinium bromide) [Dimer 136]” the MIC [1] was 0.6 ppm and the “Antimicrobial activity against MRSA (in words)” value [1] was “demonstrate an antimicrobial activity against MRSA”.
`CC(=O)[O-].CC(=O)[O-].CCCCCCCCCC[n+]1ccc(C(=O)NCCCCCCNC(=O)c2cc[n+](CCCCCCCCCC)cc2)cc1` [Dimer 38A, N,N′-hexamethylenebis(4-carbamoyl-1-decylpyridinium acetate)] was tested, and the MIC ([2]; procedure 1 of 7, B. subtilis ATCC 6633) was 0.8 ppm, the MIC ([2]; procedure 2 of 7, B. subtilis ATCC 6633) was 0.2 ppm and the MIC ([2]; procedure 3 of 7, B. subtilis ATCC 6633) was 0.4 ppm. The MIC ([2]; procedure 4 of 7, B. subtilis ATCC 6633) was 0.2 ppm, the MIC ([2]; procedure 5 of 7, B. subtilis ATCC 6633) was 0.4 ppm and the MIC ([2]; procedure 6 of 7, B. subtilis ATCC 6633) was 0.4 ppm. It also gave an MIC ([2]; procedure 7 of 7, B. subtilis ATCC 6633) of 0.4 ppm, an MIC ([3]; procedure 1 of 7, P. aeruginosa ATCC 10145) of 3.1 ppm and an MIC ([3]; procedure 2 of 7, P. aeruginosa ATCC 10145) of 3.1 ppm. For the same compound, the MIC ([3]; procedure 3 of 7, P. aeruginosa ATCC 10145) was 6.3 ppm, the MIC ([3]; procedure 4 of 7, P. aeruginosa ATCC 10145) was 6.3 ppm and the MIC ([3]; procedure 5 of 7, P. aeruginosa ATCC 10145) was 6.3 ppm. It also gave an MIC ([3]; procedure 6 of 7, P. aeruginosa ATCC 10145) of 6.3 ppm, an MIC ([3]; procedure 7 of 7, P. aeruginosa ATCC 10145) of 3.1 ppm and an MIC ([4]; procedure 1 of 7, E. coli K12W3110) of 1.6 ppm. It also gave an MIC ([4]; procedure 2 of 7, E. coli K12W3110) of 0.8 ppm, an MIC ([4]; procedure 3 of 7, E. coli K12W3110) of 0.8 ppm and an MIC ([4]; procedure 4 of 7, E. coli K12W3110) of 0.8 ppm. It also gave an MIC ([4]; procedure 5 of 7, E. coli K12W3110) of 1.6 ppm, an MIC ([4]; procedure 6 of 7, E. coli K12W3110) of 1.6 ppm and an MIC ([4]; procedure 7 of 7, E. coli K12W3110) of 1.6 ppm. It also gave an MIC ([5]; procedure 1 of 7, S. aureus IFO 12732) of 0.1 ppm, an MIC ([5]; procedure 2 of 7, S. aureus IFO 12732) of 0.01 ppm and an MIC ([5]; procedure 3 of 7, S. aureus IFO 12732) of 0.05 ppm. For the same compound, the MIC ([5]; procedure 4 of 7, S. aureus IFO 12732) was 0.01 ppm, the MIC ([5]; procedure 5 of 7, S. aureus IFO 12732) was 0.1 ppm and the MIC ([5]; procedure 6 of 7, S. aureus IFO 12732) was 0.1 ppm. The MIC ([5]; procedure 7 of 7, S. aureus IFO 12732) was 0.05 ppm.
`CCCCCCCCCC[n+]1ccc(C(=O)NCCCCCCNC(=O)c2cc[n+](CCCCCCCCCC)cc2)cc1.[Br-].[Br-]` [Dimer 38, N,N′-Hexamethylenebis(4-carbamoyl-1-decylpyridinium bromide)] was tested, and the MIC [1] was 0.2 ppm and the “Antimicrobial activity against MRSA (in words)” value [1] was “demonstrate an antimicrobial activity against MRSA”.
